Results reported in patent publication US20230100193A1, “NOVEL PHARMACEUTICAL FORMULATIONS CONTAINING INDIRUBIN AND DERIVATIVES THEREOF AND METHODS OF MAKING AND USING THE SAME” (Cytodigm, Inc., priority 2017, published 2023).

Experiment: Dissolution measurement after 30 minutes in 2% Tween 20 in PBS, HPLC of supernatant
Assay type: physicochemical
Settings: after stirring for 30 minutes, centrifuged 14,000 rpm 15 min, HPLC 292 nm, 6-BIA 1.10 mg in 110 mL, nanoparticles approx. 1.32 mg/ml 6-BIA
Procedure: As a control, dissolution of 6-BIA without polymer was first tested. 1.10 mg of 6-BIA was added to 110 mL of 2% Tween 20 in PBS. After stirring for 30 minutes, 1 mL of the resulting suspension was immediately collected to an Eppendorf tube. The Eppendorf tube was centrifuged at 14,000 rpm for 15 min.
Encapsulated 6-BIA nanoparticles obtained in Example 4 were re-suspended in 2% Tween 20 in PBS to form a nanoparticle suspension containing approximately 1.32 mg/ml of 6-BIA in the nanoparticles. After stirring for 30 minutes, 1 mL of the resulting suspension was immediately collected to an Eppendorf tube. The Eppendorf tube was centrifuged at 14,000 rpm for 15 min.

- 6-BIA concentration in supernatant (30-minute dissolution): 3.89 µg/mL
SMILES: O=C1Nc2cc(Br)ccc2/C1=C1/Nc2ccccc2/C1=N\O [Example 6-BIA, 6-bromoindirubin-3′-oxime]
